According to patent US6706740B2, “Fungicidal heterocyclic aromatic amides and their compositions, methods of use and preparation” (Dow AgroSciences LLC, priority 1999, dated 2004):
Where two headings read alike, the source gives them in different places.

What was measured:
[1] = test system: Rhizoctonia solani (RHIZSO); assay: microbe, parasite or virus in culture; format: cell-based; details: Rhizoctonia solani, read-out: RHIZSO in vitro Growth Inhibition
Erysiphe graminis—ERYSGT = assay: Powdery Mildew of Wheat, in vivo whole plant, 24 Hour Protectant; details: Erysiphe, read-out: ERYSGT in vivo 1 Day Protectant
[2] = test system: Stagonospora nodorum (Leptosphaeria nodorum—LEPTNO); assay: In vitro fungal growth inhibition, Stagonospora nodorum (LEPTNO); format: cell-based; details: Leptosphaeria, read-out: LEPTNO in vitro Growth Inhibition
[3] = test system: Phytophthora infestans—PHYTIN; assay: whole plant or invertebrate; format: in vivo; details: Phytophthora, in Solanum lycopersicum, 24 h, read-out: PHYTIN in vivo 1 Day Protectant
Septoria tritici—SEPTTR = assay: Leaf Blotch of Wheat, in vivo whole plant, 24 Hour Protectant; details: for pest or weed control at 100 ppm: Zymoseptoria tritici, 24 h, read-out: SEPTTR in vivo 1 Day Protectant
[4] = test system: Puccinia recondita—PUCCRT; assay: Brown Rust of Wheat, in vivo whole plant, 24 Hour Protectant; details: for pest or weed control at 100 ppm: Puccinia, read-out: PUCCRT in vivo 1 Day Protectant
[5] = test system: Leptosphaeria nodorum—LEPTNO; assay: Glume Blotch of Wheat, in vivo whole plant, 24 Hour Protectant; details: for pest or weed control at 100 ppm: Leptosphaeria, read-out: LEPTNO in vivo 1 Day Protectant
[6] = test system: Magnaporthe grisea (Pyricularia oryzae—PYRIOR); assay: microbe, parasite or virus in culture; format: cell-based; details: Pyricularia oryzae, read-out: PYRIOR in vitro Growth Inhibition
[7] = test system: Phytophthora infestans (PHYTIN); assay: microbe, parasite or virus in culture; format: cell-based; details: Phytophthora infestans, read-out: PHYTIN in vitro Growth Inhibition
Ustilago maydis (USTIMA) = assay: microbe, parasite or virus in culture; format: cell-based; details: Mycosarcoma maydis, read-out: USTIMA in vitro Growth Inhibition
[8] = test system: Mycosphaerella graminicola (Septoria tritici—SEPTTR); assay: In vitro fungal growth inhibition, Mycosphaerella graminicola (SEPTTR); format: cell-based; details: Zymoseptoria tritici, read-out: SEPTTR in vitro Growth Inhibition
[9] = wheat plants sprayed at 100 ppm, inoculated after 24 hours, control of fungal infection vs untreated plants
[10] = 100 ppm spray, wheat, 24 hour protectant, % control of fungal infection vs untreated plants
[11] = 100 ppm spray, wheat, 24 hour protectant, control of fungal infection vs untreated plants
[12] = 100 ppm spray, 24 hour protectant, wheat, control of fungal infection vs untreated plants

Structure (SMILES) | inhibition at 25 ppm [1] [%] | pest or weed control at 100 ppm (Erysiphe graminis—ERYSGT; [9]) [%] | inhibition at 25 ppm ([2]; 25 ppm in the growth medium) [%] | pest or weed control at 100 ppm [3] [%] | pest or weed control at 100 ppm (Septoria tritici—SEPTTR; [9]) [%] | melting point [°C] | pest or weed control at 100 ppm [4, 9] [%] | pest or weed control at 100 ppm [5, 9] [%] | inhibition at 25 ppm [6] [%] | inhibition at 25 ppm [7] [%] | inhibition at 25 ppm (Ustilago maydis (USTIMA)) [%] | inhibition at 25 ppm ([8]; 25 ppm in the growth medium) [%] | inhibition at 25 ppm ([2]; 25 ppm in growth medium) [%] | inhibition at 25 ppm ([8]; 25 ppm in growth medium) [%] | pest or weed control at 100 ppm (Erysiphe graminis—ERYSGT; [12]) [%] | pest or weed control at 100 ppm (Septoria tritici—SEPTTR; [12]) [%] | pest or weed control at 100 ppm [4, 12] [%] | pest or weed control at 100 ppm [5, 12] [%] | also measured
CC1(C)CC(NC(=O)c2nc3ccccc3nc2O)CC(C)(C)C1 [Compound 563] | < 80 | < 25 | < 80 | < 25 | < 25 | > 300 | < 25 | 25 to 74 | < 80 | < 80 | < 80 | < 80 |  |  |  |  |  |  | 
COCCC(=O)Oc1c(OC)ccnc1C(=O)Nc1ccc(C(=O)c2cccc(C(F)(F)F)c2)cc1 [Compound 706] | < 80 |  |  | < 25 |  | 158 to 160 |  |  | < 80 | < 80 | < 80 |  | > 80 | < 80 |  |  |  |  | pest or weed control at 100 ppm (Erysiphe graminis—ERYSGT; [10]): < 25%; pest or weed control at 100 ppm (Septoria tritici—SEPTTR; [10]): 25 to 74%; pest or weed control at 100 ppm [4, 10]: < 25%; pest or weed control at 100 ppm [5, 10]: 25 to 74%
O=C(Nc1ccccc1Oc1ccccc1)c1cccnc1O [Compound 520] | < 80 | < 25 | < 80 | < 25 | < 25 | 234 to 235 | < 25 | 25 to 74 | < 80 | < 80 | < 80 | < 80 |  |  |  |  |  |  | 
CC(C)C(=O)O[C@H]1[C@H](C)OC(=O)[C@@H](NC(=O)c2nc3ccccc3cc2O)COC(=O)[C@@H]1Cc1ccccc1 [Compound 562] | < 80 | 25 to 74 | < 80 | < 25 | 25 to 74 | 163 to 165 | < 25 | < 25 | < 80 | < 80 | < 80 | < 80 |  |  |  |  |  |  | 
COCc1cc(Oc2ccc(C(F)(F)F)cc2)ccc1NC(=O)c1nccc(OC)c1O [Compound 426] | > 80 |  |  | 25 to 74 |  | 125 to 127 |  |  | > 80 | > 80 | > 80 |  | > 80 | > 80 |  |  |  |  | pest or weed control at 100 ppm (Erysiphe graminis—ERYSGT; [11]): 25 to 74%; pest or weed control at 100 ppm (Septoria tritici—SEPTTR; [11]): 25 to 74%; pest or weed control at 100 ppm [4, 11]: 25 to 74%; pest or weed control at 100 ppm [5, 11]: < 25%
CC(C)C(=O)O[C@H]1[C@H](C)OC(=O)[C@@H](NC(=O)c2conc2O)COC(=O)[C@@H]1Cc1ccccc1 [Compound 561] | < 80 | 25 to 74 | < 80 | < 25 | 25 to 74 | 115 to 117 | 25 to 74 | < 25 | < 80 | < 80 | < 80 | < 80 |  |  |  |  |  |  | 
O=C(Nc1ccc(Oc2ccc(C(F)(F)F)cc2)cc1)c1ncccc1O [Compound 217] | < 80 |  |  | < 25 |  | 131 to 133 |  |  | < 80 | < 80 | < 80 |  | < 80 | < 80 | 25 to 74 | < 25 | < 25 | < 25 | 
COc1ccnc(C(=O)N[C@@H]2CCCC[C@H]2SC)c1O [Compound 273] | < 80 |  |  | < 25 |  | 113 to 115 |  |  | < 80 | < 80 | < 80 |  | < 80 | < 80 | < 25 | 25 to 74 | < 25 | 25 to 74 | 
COc1ccnc(C(=O)N[C@H]2COC(=O)[C@H](Cc3ccccc3)[C@@H](OC(=O)C(C)C)[C@H](C)OC2=O)c1OC(=O)C1CC1 [Compound 601] | < 80 |  |  | < 25 |  | 195 to 196 |  |  | < 80 | < 80 | < 80 |  | < 80 | < 80 |  |  |  |  | pest or weed control at 100 ppm (Erysiphe graminis—ERYSGT; [10]): < 25%; SEPTTR in vivo 1 Day Protectant (Septoria tritici—SEPTTR; [10]): + +; PUCCRT in vivo 1 Day Protectant [4, 10]: + +; LEPTNO in vivo 1 Day Protectant [5, 10]: + +
COc1ccnc(C(=O)N[C@@H]2CC(C)(C)C[C@](C)(C(=O)N(C)CCc3ccccc3)C2)c1O [Compound 262] | < 80 |  |  | < 25 |  | 59 to 60 |  |  | < 80 | < 80 | < 80 |  | < 80 | < 80 | < 25 | 25 to 74 | < 25 | 25 to 74 | 
